Test results: US20070191372A1, “Dna-targeted benzotriazine 1,4-dioxides and their use in cancer therapy” (Auckland Uniservices Limited, priority 2002, published 2007)

Key:
[1] = tested on: human colon carcinoma HT-29; experiment: Proliferation assay (IC50) under aerobic and hypoxic conditions, HT-29; assay type: cell-based; conditions: for RHT: HT-29, ratio Tirapazamine/test compound under hypoxic conditions; for HCR: HT-29, ratio of IC50 under aerobic and hypoxic conditions; for IC50: Homo sapiens, HT-29, hypoxic (anoxia <0.001% O2), 4 h exposure
Protocol: (§1) Evaluation of the Cytotoxicity of Compounds by Proliferation Assay (IC50) Under Aerobic and Hypoxic Conditions.
(§2) Compounds representative of the invention were evaluated under both aerobic and hypoxic conditions in a proliferation assay (IC50), using two cell lines: human colon carcinoma HT-29, and human cervical carcinoma SiHa.
(§3) Drug exposures were performed in 96-well plates (Nunc) using either a 37° C. humidified incubator (20% O2, 5% CO2) or in the incubator compartment (37° C.) of an anaerobic chamber (Shell Lab) where palladium catalyst scrubbed gas (90% N2, 5% H2, 5% CO2) ensures severe anoxia (<0.001% O2). For each experiment, compounds were simultaneously tested under both oxic and hypoxic conditions against the HT-29 cell line and included TPZ as an independent internal control at the front and back of the assay (n=2). Final data was pooled from a series of seven independent experiments and is calculated using inter-experimental means. In all cases, 8-methyl-5-nitroquinoline was used as a second internal control to confirm that strict hypoxia was present during the experiment. (Siim et al. Br. J. Cancer 1994, 70, 596-603). Cell cultures were grown in αMEM (Gibco) containing 5% heat inactivated FCS and maintained in exponential growth phase. For each individual experiment an appropriate number of cells were seeded (HT-29=1000) into wells in αMEM÷10% FCS+10 mM added glucose+100 μM 2′-deoxycytidine (2′dCyd), and allowed to attach for 3 h. High glucose (final concentration 17 mM) and the presence of 2′-dCyd minimize hypoxia-induced cell cycle arrest. Replicates were then exposed to BTOs, using 2-fold serial dilutions in triplicate, for a further 4 h. Subsequently cells were washed free of compound using complete media (without glucose/2′-dCyd) and allowed to grow for 5 (oxic) or 6 (anoxic) days. Plates were stained as described previously (Wilson et al., J. Med. Chem. 1989, 32, 31-38) and IC50 values determined.
(§4) IC50=The concentration of drug (in micromolar) to reduce viable cell numbers to 50% of those of control cell cultures grown under the same conditions but not exposed to drug
(§5) RHT=Relative hypoxic toxicity is defined as the ratio of concentrations of Tirapazamine/test compound to give equal cell killing under hypoxic conditions.
(§6) HCR=Hypoxic cytotoxicity ratio is defined as the ratio of drug concentrations under aerobic and hypoxic condition to produce equal cell survival (50%) determined by proliferation assay

murine SCCVII = experiment: Clonogenic assay under aerobic and hypoxic conditions, SCCVII; assay type: cell-based; conditions: SCVIII cells; for IC90: Mus musculus, 1 h, hypoxic, 60 min drug exposure, SN (hypoxic), read-out: C10 hypoxic; for HCR: ratio of C10 under aerobic and hypoxic conditions; for RHT: ratio of hypoxic TPZ C10 to hypoxic compound C10
Protocol: (§7) Evaluation of the Cytotoxicity of Compounds by Clonogenic Assay Under Aerobic and Hypoxic Conditions.
(§8) Compounds representative of the invention were evaluated under both aerobic and hypoxic conditions in clonogenic assays, using three cell lines: human colon carcinoma HT-29, murine SCCVII, and human lung adenocarcinoma LXFL. Clonogenic survival was determined using aerobic and hypoxic SCCVII cell suspensions. Drug exposures were performed using continuously stirred and gassed single cell suspensions (10^6 cells/mL) at 37° C., equilibrated with 5% CO2 in air or N2 for 60 min before drug addition. After a 60 min drug exposure cells were washed by centrifugation and plated to determine colony formation Cytotoxicity was measured as the concentration required to reduce plating efficiency to 10% of controls (C10). The hypoxic cytotoxicity ratio (HCR) was determined as the ratio of the C10 values under aerobic and hypoxic conditions. The relative hypoxic toxicity (RHT) was determined as the ratio of hypoxic TPZ C10 to hypoxic BTO C10. Abbreviations used in Table 2 are:
(§9) C10=The concentration of drug (in micromolar) to reduce viable cell numbers to 10% of those of control cell cultures grown under the same conditions but not exposed to drug
as §5
(§10) HCR=Hypoxic cytotoxicity ratio is defined as the ratio of drug concentrations under aerobic and hypoxic condition to produce equal cell survival (10%) determined by clonogenic assay

[2] = tested on: human lung adenocarcinoma LXFL; experiment: Clonogenic assay under aerobic and hypoxic conditions, LXFL; assay type: cell-based; conditions: LXFL cells
Protocol: as §7, §8, §9, §5, §10

[3] = tested on: human cervical carcinoma SiHa; experiment: Proliferation assay (IC50) under aerobic and hypoxic conditions, SiHa; assay type: cell-based; conditions: for IC50: Homo sapiens, hypoxic, 4 h exposure; for RHT: ratio Tirapazamine/test compound under hypoxic conditions; for HCR: ratio of IC50 under aerobic and hypoxic conditions
Protocol: as §1, §2, §3, §4, §5, §6

| IC50 [1] | melting point | IC90 (murine SCCVII) | IC50 [3] | Compound | RHT [1] | HCR [1] | HCR (murine SCCVII) | RHT (murine SCCVII) | C10 hypoxic ([2]; hypoxic, 60 min drug exposure) | HCR ([2]; ratio of C10 under aerobic and hypoxic conditions) | RHT ([2]; ratio of hypoxic TPZ C10 to hypoxic compound C10) | RHT [3] | HCR [3] |
| --- | --- | --- | --- | --- | --- | --- | --- | --- | --- | --- | --- | --- | --- |
| 356 nM | 163 to 169 °C | – | – | Cl.O=C(NCCCNCCCNc1n[n+]([O-])c2ccccc2[n+]1[O-])c1cccc2nc3ccccc3nc12 [Compound 31, N-[3-({3-[(1,4-dioxido-1,2,4-benzotriazin-3-yl)amino]propyl}amino)propyl]-1-phenazinecarboxamide hydrochloride] | 163 | 5.3 | – | – | – | – | – | – | – |
| 43 nM | – | 800 nM | – | CN(CCCNC(=O)c1cccc2cc3ccccc3nc12)CCCNc1n[n+]([O-])c2ccccc2[n+]1[O-] [Compound 41, N-{3-[{3-[(1,4-Dioxido-1,2,4-benzotriazin-3-yl)amino]propyl}(methyl)amino]propyl}-4-acridinecarboxamide] | 134 | 154 | 52.5 | 12.5 | 0.4 µM | 50 | 37.5 | – | – |
| 18 nM | 138 to 142 °C | 310 nM | – | Cc1cccc2nc3c(C(=O)NCCCN(C)CCCNc4n[n+]([O-])c5ccccc5[n+]4[O-])cccc3nc12 [Compound 45, N-{3-[{3-[(1,4-Dioxido-1,2,4-benzotriazin-3-yl)amino]propyl}(methyl)amino]-propyl}-9-methyl-4-phenazinecarboxamide] | 321 | 31 | 23.9 | 29 | – | – | – | – | – |
| 130 nM | 166 to 168 °C | – | – | Cc1ccc2c(c1)[n+]([O-])nc(NCCCN(C)CCCNC(=O)c1cccc3cc4ccccc4nc13)[n+]2[O-] [Compound 74, N-[3-(Methyl{3-[(7-methyl-1,4-dioxido-1,2,4-benzotriazin-3-yl)amino]propyl}amino)propyl]-4-acridinecarboxamide] | 44.7 | 95 | – | – | – | – | – | – | – |
| 200 nM | 178 to 180 °C | – | 70 nM | Cc1ccc2c(c1)[n+]([O-])nc(NCCCN(C)CCCNC(=O)c1cccc3ccc(-c4ccncc4)nc13)[n+]2[O-] [Compound 75, N-[3-(Methyl{3-[(7-methyl-1,4-dioxido-1,2,4-benzotriazin-3-yl)amino]propyl}amino)propyl]-2-(4-pyridinyl)-8-quinolinecarboxamide] | 29 | 92 | – | – | – | – | – | 53 | 110 |
| 225 nM | 178 to 180 °C | – | 105 nM | Cc1ccc2c(c1)[n+]([O-])c(NCCCN(C)CCCNC(=O)c1cccc3ccc(-c4ccncc4)nc13)n[n+]2[O-] [Compound 86, N-[3-(Methyl{3-[(6-methyl-1,4-dioxido-1,2,4-benzotriazin-3-yl)amino]propyl}amino)propyl]-2-(4-pyridinyl)-8-quinolinecarboxamide] | 66 | 168 | – | – | – | – | – | 35 | 136 |
| – | 111 to 114 °C | – | – | Cc1ccc2c(c1)[n+]([O-])c(NCCCN(C)CCCNC(=O)c1cccc3nc4ccccc4nc13)n[n+]2[O-] [Compound 87, N-[3-(Methyl{3-[(6-methyl-1,4-dioxido-1,2,4-benzotriazin-3-yl)amino]propyl}amino)propyl]-1-phenazinecarboxamide] | – | – | – | – | – | – | – | – | – |
| – | 80 to 83 °C | – | – | Cc1ccc2c(c1)[n+]([O-])c(NCCCNCCCNC(=O)c1cccc3nc4cccc(C)c4nc13)n[n+]2[O-] [Compound 88, 9-Methyl-N-[3-({3-[(6-methyl-1,4-dioxido-1,2,4-benzotriazin-3-yl)amino]propyl}amino)propyl]-1-phenazinecarboxamide] | – | – | – | – | – | – | – | – | – |
| 190 nM | 130 to 135 °C | 2300 nM | 100 nM | CN(CCNC(=O)c1cccc2ccc(-c3ccncc3)nc12)CCNc1n[n+]([O-])c2ccccc2[n+]1[O-] [Compound 96, N-{2-[{2-[(1,4-Dioxido-1,2,4-benzotriazin-3-yl)amino]ethyl}(methyl)amino]ethyl}-2-(4-pyridinyl)-8-quinolinecarboxamide] | 31 | 77 | 65 | 3.9 | – | – | – | 37 | 78 |
| – | 163 to 165 °C | – | – | CN(CCNC(=O)c1cccc2nc3ccccc3nc12)CCNc1n[n+]([O-])c2ccccc2[n+]1[O-] [Compound 97, N-{2-[{2-[(1,4-Dioxido-1,2,4-benzotriazin-3-yl)amino]ethyl}(methyl)amino]ethyl}-1-phenazinecarboxamide] | – | – | – | – | – | – | – | – | – |
| 135 nM | 161 to 163 °C | – | 75 nM | Cc1cccc2nc3cccc(C(=O)NCCN(C)CCNc4n[n+]([O-])c5ccccc5[n+]4[O-])c3nc12 [Compound 98, N-{2-[{2-[(1,4-Dioxido-1,2,4-benzotriazin-3-yl)amino]ethyl}(methyl)amino]ethyl}-9-methyl-1-phenazinecarboxamide] | 114 | 45 | – | – | – | – | – | 63 | 30 |
| 410 nM | 148 to 152 °C | 290 nM | – | Cc1cccc2cc3cccc(C(=O)NCCN(C)CCNc4n[n+]([O-])c5ccccc5[n+]4[O-])c3nc12 [Compound 99, N-{2-[{2-[(1,4-Dioxido-1,2,4-benzotriazin-3-yl)amino]ethyl}(methyl)amino]ethyl}-5-methyl-4-acridinecarboxamide] | 14 | 25 | 176 | 17.2 | – | – | – | – | – |
| 490 nM | 160 to 165 °C | – | 160 nM | O=C(NCCNCCNc1n[n+]([O-])c2ccccc2[n+]1[O-])c1cccc2ccc(-c3ccncc3)nc12 [Compound 102, N-[2-({2-[(1,4-Dioxido-1,2,4-benzotriazin-3-yl)amino]ethyl}amino)ethyl]-2-(4-pyridinyl)-8-quinolinecarboxamide] | 12 | 54 | – | – | – | – | – | 23 | 53 |
| 35 nM | 135 to 140 °C | – | 10 nM | Cc1cccc2cc3cccc(C(=O)NCCNCCNc4n[n+]([O-])c5ccccc5[n+]4[O-])c3nc12 [Compound 103, N-[2-({2-[(1,4-Dioxido-1,2,4-benzotriazin-3-yl)amino]ethyl}amino)ethyl]-5-methyl-4-acridinecarboxamide] | 357 | 83 | – | – | – | – | – | 309 | 118 |
| – | 140 to 145 °C | – | – | CN(C)CCCC(=O)c1cc(NC(=O)c2cc(NC(=O)CCCNc3n[n+]([O-])c4ccccc4[n+]3[O-])cn2C)cn1C [Compound 112, N-{5-[4-(Dimethylamino)butanoyl]-1-methyl-1H-pyrrol-3-yl}-4-({4-[(1,4-dioxido-1,2,4-benzotriazin-3-yl)amino]butanoyl}amino)-1-methyl-1H-pyrrole-2-carboxamide] | – | – | – | – | – | – | – | – | – |
